Values joined by “and” are separate entries in the source; they are usually repeats but may differ in a detail not shown here. Identical values can stand only once. Like-named read-outs stand apart in the source and are kept apart here.
Experiments:
[1] = tested on: T. cruzi amastigotes; assay: T. cruzi amastigote image-based assay in 3T3 host cells; type: cell-based, Trypanosoma cruzi; settings: for T. cruzi amastigote percent inhibition at the highest concentration tested: 40 µM per footnote, given if an IC50 could not be calculated; for IC50: in 3T3 host cells, read-out: T. cruzi amastigote IC50 ± SEM
Method: The next step taken was to determine whether the activity of the compounds was confined to P. falciparum, or whether it extended to other protozoan parasites. Compound activity against two members of another clinically important group of parasites, the kinetoplastids T. cruzi and T. b. brucei was determined. The sensitive high content imaging assay used to determine compound activity against T. cruzi assesses the intracellular amastigote life form of the parasite in the 3T3 host cell. It is important to simultaneously assess compound activity against 3T3 cells to determine potential cytotoxicity against the host cell line, since this could result in a false positive outcome. The T. b. brucei assay employs the REDOX indicator Alamar Blue to assess viability, which was developed into a 384-well assay format.
Compound activity against T. cruzi amastigotes was assessed in an image-based assay in single point concentration-response and three biological replicates, at a final highest compound concentration of […], as previously described.

[2] = tested on: P. falciparum early stage gametocytes (PfEG, stage I-III); assay: Chemical rescue with CoA pathway intermediates, early stage gametocytes; type: cell-based, Plasmodium falciparum; settings: for Percent rescue ± SEM by CoA, PfEG: CoA 1.6 mM; for Percent rescue ± SEM by CoA, PfEG / Percent rescue ± SEM by pantethine, PfEG / Percent rescue ± SEM by pantothenate, PfEG: inhibitor at IC80; for Percent rescue ± SEM by pantethine, PfEG: pantethine 10 mM; for Percent rescue ± SEM by pantothenate, PfEG: pantothenate 625 μM
Method: (§1) Pantothenate is the first substrate of the pathway (Fig. 1) and its addition was intended to rescue the action of possible competitive inhibitors of the first enzyme, PanK. […] It is not known, whether P. falciparum is capable of pantetheine phosphorylation for utilization in CoA synthesis. […] Finally, the rescue ability of dP-CoA, the final substrate of CoA synthesis, was tested. […] Inhibitors competing with dP-CoA for DPCK binding were expected to be displaced, thereby rescuing parasite survival, by dP-CoA supplementation in a concentration dependent manner.
(§2) An imaging based assay was utilised to assess the chemical rescue on asexual stages of P. falciparum as described previously. All the pathway intermediates were purchased from Sigma. CoA and dP-CoA were dissolved in sterile distilled water to obtain a 20 mM stock solution, which was then aliquoted and stored at -20 °C until use. […] Each pathway intermediate was tested on the parasites at a range of concentrations to assess potential toxicity. […] On early stage P. falciparum gametocytes the same concentrations as for CoA were tested for dP-CoA; against asexual blood stage P. falciparum, late stage gametocytes and Trypanosoma b. brucei five dP-CoA concentrations were tested (2 mM, 1.5 mM, 1 mM, 0.75 mM and 0.5 mM).
(§3) The same concentration ranges of the CoA pathway intermediates were supplemented to parasites treated with the experimental compounds. […] The negative control used in each assay was 0.4% DMSO, whilst the positive control was 2 μM artemisinin for asexual P. falciparum blood stages and 5 μM puromycin for all gametocyte stages and T. b. brucei. The percentage growth of the respective parasites following compound treatment was determined using Microsoft ® Excel 2010, and compared with their controls. All rescue assays were performed as two independent experiments each in duplicate point.

[3] = tested on: PC-3 cells; assay: Resazurin cytotoxicity assay, PC-3; type: cell-based, human; settings: highest concentration 40 μM; bound = highest concentration with < 50 % inhibition; read-out: PC-3 cytotoxicity IC50 ± SEM
Text: An initial indication of compound selectivity over human cells had previously been obtained through comparison of the compounds’ IC50 values against P. falciparum asexual stages and HEK293 [22]. In the present study, the selectivity investigation was extended to a small panel of human cancer cell lines, namely the estrogen receptor (ER)-positive breast cancer cell line MCF7, the ER-negative MDA-MB-231, as well as the human prostate cancer line, PC-3. Additionally, the cytotoxic effects on mouse embryonic fibroblast cell line 3T3, which serves as the host cell for T. cruzi in our image-based amastigote assay, were investigated.
Cytotoxicity of the compounds was assessed against a panel of human cancer cell lines, namely the estrogen receptor (ER)-positive breast cancer cell line MCF7, the ER-negative MDA-MB-231 and the prostate cancer line PC-3. All the cell lines were purchased from ATCC and maintained as previously described. Two biological replicates consisting of two technical replicates each were performed to generate concentration response curves (CRC) with a final highest concentration of 40 μM. A resazurin-based assay was utilized to determine cell viability as described earlier. Additionally, the cytotoxic effects on the mouse embryonic fibroblast cell line 3T3 were assessed as part of the Trypanosoma cruzi amastigote image-based assay as outlined in [35].

[4] = tested on: T. b. brucei trypomastigotes; assay: Chemical rescue with CoA pathway intermediates, T. b. brucei; type: cell-based, Trypanosoma brucei brucei; settings: inhibitor at IC80; for Percent rescue ± SEM by CoA, Tbb: CoA 1.0 mM; for Percent rescue ± SEM by pantethine, Tbb: pantethine 2.44 μM; for Percent rescue ± SEM by pantothenate, Tbb: pantothenate 1.25 mM
Method: as §1
An imaging based assay was utilised to assess the chemical rescue on asexual stages of P. falciparum as described previously. All the pathway intermediates were purchased from Sigma. […]
as §3, with “compounds. The inhibitors were used at their respective final assay concentration of IC80 (as determined previously in the corresponding P. falciparum development stage or T. b. brucei assay).” for “compounds.”

[5] = tested on: P. falciparum asexual blood stages (PfAS); assay: Chemical rescue with CoA pathway intermediates, asexual stages; type: cell-based, Plasmodium falciparum; settings: inhibitor at IC80; for Percent rescue ± SEM by CoA, PfAS: CoA 0.8 mM; for Percent rescue ± SEM by dephospho CoA, PfAS: dP-CoA 0.8 mM; for Percent rescue ± SEM by pantethine, PfAS: pantethine 125 μM; for Percent rescue ± SEM by pantothenate, PfAS: pantothenate 300 μM
Method: as §1, §2
as §3, with “compounds. The inhibitors were used at their respective final assay concentration of IC80 (as determined previously in the corresponding P. falciparum development stage or T. b. brucei assay).” for “compounds.”

[6] = molecular target: early stage gametocytes (stage I to IIb/III) of P. falciparum line NF54^Pfs16; assay: Gametocyte luciferase assay, early stage; type: cell-based, Plasmodium falciparum
Text: To investigate a potential role of CoA biosynthesis for host to vector transmission of the malaria parasite, we investigated the activity of our compounds on P. falciparum gametocytes, the sexual stages of P. falciparum, essential for malaria transmission. […] Parasite stage-specificity and gametocytocidal activity of the compounds was therefore investigated, utilizing a luciferase-based approach on early stage (development from stage I to IIb/III [30]) and late stage (IV to V [51]) gametocytes.
Induction of P. falciparum gametocyte differentiation and gametocyte culturing were performed as previously described. Compound activity against early stage gametocytes (covering the development from stage I to IIb/III) and late stage gametocytes (stage IV to V) of the recombinant P. falciparum line NF54^Pfs16 was assessed in concentration-response assays, in two experimental replicates consisting of two technical repeats each, at a highest concentration of 40 μM, as described earlier.

[7] = tested on: T. cruzi trypomastigotes; assay: T. cruzi trypomastigote PrestoBlue assay; type: cell-based, Trypanosoma cruzi; settings: for IC50: highest concentration 40 μM, read-out: T. cruzi trypomastigote IC50 ± SEM
Method: Compound activity against T. cruzi trypomastigotes was assessed in two independent experiments, without technical repeats, at a final highest compound concentration of 40 μM in concentration-response PrestoBlue assay, as previously described.

[8] = read-out: Early stage gametocyte IC50
[9] = highest concentration 40 μM, read-out: Early stage gametocyte IC50 ± SEM

SMILES	T. cruzi amastigote percent inhibition at the highest concentration tested [1] [%]	Percent rescue ± SEM by CoA, PfEG [2]	Percent rescue ± SEM by pantethine, PfEG [2]	Percent rescue ± SEM by pantothenate, PfEG [2]	IC50 [3] [nM]	Percent rescue ± SEM by CoA, Tbb [4] [%]	Percent rescue ± SEM by pantethine, Tbb [4]	Percent rescue ± SEM by pantothenate, Tbb [4]	Percent rescue ± SEM by CoA, PfAS [5] [%]	Percent rescue ± SEM by dephospho CoA, PfAS [5] [%]	Percent rescue ± SEM by pantethine, PfAS [5]	Percent rescue ± SEM by pantothenate, PfAS [5]	IC50 [6, 8] [nM]	IC50 [7]	IC50 [1] [nM]	IC50 [6, 9] [nM]	other results
CC1=CC(=O)C(C(C)C)=C/C1=N/OS(=O)(=O)c1ccccc1 [STK 740987]	54	24.1 ±0.7% and 24 ± 1%	No and not rescued by the other intermediates	No and not rescued by the other intermediates	> 20000	69.6 ± 10.6	No	No	103.9 ± 3.4	88.9 ± 6.7	No	No	430	680 nM and 682 nM			activity on early stage gametocytes at previously determined IC80 value ([2]; compound alone in rescue experiment): > 95%; Percent rescue by CoA, PfEG, at the compound's IC50 ([2]; inhibitor at IC50): 61.5 ± 1.0% and 62 ± 1%; Percent rescue by dephospho CoA, PfEG, at the compound's IC50 ([2]; inhibitor at IC50): 46.2 ± 2.4% and 46 ± 2%; Rescue by pantethine, PfEG, at the compound's IC50 (in words) ([2]; inhibitor at IC50): unaffected; Rescue by pantothenate, PfEG, at the compound's IC50 (in words) ([2]; inhibitor at IC50): unaffected
Cc1csc(Sc2ncnc3sccc23)n1 [Amb180780]	21	111.3 ± 3.2% and ~100%	94.2 ± 1.8% and ~100%	No	> 40000						76.2 ± 7.7% and 76 ± 8%	No and not by pantothenate	60				T. cruzi trypomastigote percent inhibition at the highest concentration tested ([7]; 40 µM, given if an IC50 could not be calculated): 100%
CC(=O)C1=C(c2ccccc2)C(=O)c2ccccc2C1=O [Amb4317088]					1400 ± 60	85.0 ± 6.9	No	No	84.5 ± 7.7	77.6 ± 5.5	No	No		390 nM and 392 nM	4300 ± 270	2880 ± 180	
CC(=O)c1ccc2c3c(onc13)-c1ccccc1C2=O [Amb3377585]			No	No	5500 ± 640	95.0 ± 4.2	No	34.2 ± 1.3% and 34 ± 1%	89.3 ± 2.6	38.7 ± 4.7	No	No		740 nM and 744 nM	13300 ± 2350	250 ± 10	Percent rescue ± SEM by dephospho CoA, Tbb ([4]; dP-CoA 1.6 mM): 100.4 ± 1.4%
